Measurements as given in patent US12589111B2, “Pt(IV) chemotherapeutic prodrug and controlled release thereof for treatment of tumors” (PEKING UNIVERSITY, priority 2020, dated 2026).

Tested on: not listed separately
Experiment: Ligand release of Pt(IV) complex 1 in different solutions after X-ray irradiation
Type: physicochemical
Settings: 100 μM in complete fetal bovine serum (FBS)
Experimental: 2.5 Detection of Ligand Release of Pt(IV) Complex 1 in Different Solutions
A 10 mM stock solution of Pt(IV) complex 1 was prepared, and diluted to 100 μM in H2O. PBS, 5 mM Tyr, Trp, DMEM and CM (complete medium), FBS solution. After X-ray irradiation, 200 μL of ACN was added to each solution. The mixture was centrifuged, and the supernatant was then collected. The operation was repeated 2 more times, and the final concentration was ⅛ of the original concentration. Ligand release was detected by UPLC-MS and quantified by a standard curve of coumarin.

Row | SMILES | reaction yield of ligand release
1 | CC(=O)[O][Pt]([Cl])([Cl])[O]C(C)=O.N.N [Pt(IV) complex 1] | not much different from that in water

Same assay, conditions: 100 μM; PBS, 5 mM Tyr, 5 mM Trp, DMEM, CM; X-ray, UPLC-MS

Row | SMILES | release of axial ligands
2 | CC(=O)[O][Pt]([Cl])([Cl])[O]C(C)=O.N.N [Pt(IV) complex 1] | achieved in all of the above solutions

Tested on: HCT116, HT29, LoVo and Ls513 (human colorectal cancer cell lines)
Experiment: Cytotoxicity to Oxaliplatin-sensitive cell lines
Type: cell-based
Settings: not given

Row | SMILES | IC50
3 | O=C1[O][Pt]2([NH][C@@H]3CCCC[C@H]3[NH]2)[O]C1=O [Oxaliplatin] | about submicromolar level

Tested on: not listed separately
Experiment: Release of the corresponding platinum drug of Pt(IV)-(Suc)2 after γ-ray irradiation
Type: physicochemical
Settings: deoxygenated, 60Co γ-rays; UPLC-MS, 195Pt NMR
Experimental: 2.6 Detection of the Release of the Corresponding Platinum Drug of Pt(IV)-(Suc)2
Pt(IV)-(Suc)2 was dissolved in 1 mL of deuterium water ([…]), and the mixture was adjusted to a pH of 7 with NaOH. After deoxygenation, the solution was exposed to 40 kGy γ-ray irradiation (^60Co source, 200 Gy/min, 200 min).
Determination of product by UPLC-MS (FIG. 3, b c)
After deoxygenation, the solution was exposed to 1 kGy γ-ray irradiation (^60Co source, 100 Gy/min, 10 min).

Row | SMILES | product released by γ-ray irradiation
4 | NC1CCCCC1N.O=C(O)CCC(=O)[O][Pt]1([O]C(=O)CCC(=O)O)[O]C(=O)C(=O)[O]1 [oxaliPt(IV)-(Suc)2] | released product was oxaliplatin
5 | [NH2][Pt]1([NH2])([O]C(=O)CCC(=O)O)([O]C(=O)CCC(=O)O)[O]C(=O)C2(CCC2)C(=O)[O]1 [carboPt(IV)-(Suc)2] | release the corresponding Pt(II) drugs
6 | N.N.O=C(O)CCC(=O)[O][Pt]([Cl])([Cl])[O]C(=O)CCC(=O)O [cisPt(IV)-(Suc)2] | release the corresponding Pt(II) drugs

Tested on: healthy mice
Experiment: not given
Settings: 3 μmol/kg
Experimental: In order to find the optimal dosage, we evaluated the effect of different doses of Oxaliplatin and prodrug on the health of healthy mice. In the same dosing way as in the treatment, the mice were dosed every third day, and then the body weight curve was recorded. […] Then ICP-MS was used to detect the concentration of the platinum drug in blood, tumor, liver and kidney respectively.
FIGS. 5 e-h show radiotherapy-driven release of Oxaliplatin for tumor treatment (n=6 mice per group). e, Tumor volume in individual mouse. f, Mean volume of tumors. The prodrug was injected intravenously for a total of 4 injections at a dose of 30 μmol/kg. One hour after intravenous injection, the tumor site in the irradiation group was irradiated with 4 Gy X-rays. Tumor volume in each group was measured every two days for 40 days. g, Survival curves of mice. According to the guidelines of Peking University Animal Ethics Committee, mice were sacrificed when the tumor volume reached 1500 mm^3. h, Body weight curves of mice.

Row | SMILES | side effects from long-term survival and body weight curves
7 | O=C1[O][Pt]2([NH][C@@H]3CCCC[C@H]3[NH]2)[O]C1=O [Oxaliplatin] | no apparent side effects

Same assay, conditions: 3 μmol/kg, dosed every third day

Row | SMILES | body weight of mice
8 | O=C1[O][Pt]2([NH][C@@H]3CCCC[C@H]3[NH]2)[O]C1=O [Oxaliplatin] | did not reduce the body weight

Same assay, conditions: 30 μmol/kg, dosed every third day

Row | SMILES | body weight of mice
9 | O=C1[O][Pt]2([NH][C@@H]3CCCC[C@H]3[NH]2)[O]C1=O [Oxaliplatin] | lost severe weight

Same assay, conditions: more than 10 μmol/kg

Row | SMILES | side effects (weight loss)
10 | O=C1[O][Pt]2([NH][C@@H]3CCCC[C@H]3[NH]2)[O]C1=O [Oxaliplatin] | significant side effects

Same assay, conditions: nude mice, intravenous injection

Row | SMILES | maximum tolerated dose
11 | O=C1[O][Pt]2([NH][C@@H]3CCCC[C@H]3[NH]2)[O]C1=O [Oxaliplatin] | about 3 μmol/kg

Tested on: not listed separately
Experiment: Determination of release efficiency by UPLC-MS after X-ray irradiation
Type: physicochemical
Settings: 10 μM in pure water, deoxygenated, 60 Gy X-ray (4 Gy/min, 15 min); released divalent platinum drug by UPLC-MS
Experimental: 2.7 Determination of Release Efficiency by UPLC-MS
Corresponding tetravalent platinum complexes (compounds 1-66) were dissolved in DMSO to obtain tetravalent platinum stock solutions (10 mM), and then diluted to 10 μM with pure water. After deoxygenation, the solution was subjected to 60 Gy X-ray irradiation (4 Gy/min, 15 min). The reaction crude product was analyzed by UPLC-MS, and the released product was determined to be the corresponding divalent platinum drug by UPLC-MS. The concentration of the divalent platinum drug was determined by the external standard curve of the platinum drug, and the release efficiency was calculated.

Row | SMILES | Release efficiency [%]
12 | CCCCCCCCCCCCCCCCNC(=O)[O][Pt]1([O]C(=O)CCC(=O)O)[O]C(=O)C(=O)[O]1.N[C@@H]1CCCC[C@H]1N [Compound 56] | 80.2
13 | [NH2][Pt]([NH2])([Cl])([Cl])([O]C(=O)CCCc1ccc(I)cc1)[O]C(=O)CCC(=O)O [Compound 10] | 76.7
14 | CC(=O)[O][Pt]([NH2])([NH2])([Cl])([Cl])[O]C(=O)CCCCCN1C(=O)C=CC1=O [Compound 3] | 80.3
15 | [NH2][Pt]([NH2])([Cl])([Cl])([O]C(=O)CCCCCN1C(=O)C=CC1=O)[O]C(=O)CCC(=O)O [Compound 11] | 73.9
16 | CC(=O)[O][Pt]([NH2])([NH2])([Cl])([Cl])[O]C(C)=O [Compound 1] | 83.2
17 | CCCCCCCCCCCCCCCCCCNC(=O)[O][Pt]([NH2])([NH2])([Cl])([Cl])[O]C(=O)CN(C)C [Compound 20] | 83.7
18 | N.N.O=C(O)CCC(=O)[O][Pt]1([O]C(=O)CCCCCN2C(=O)C=CC2=O)[O]C(=O)C2(CCC2)C(=O)[O]1 [Compound 33] | 67.7
19 | CCCCCCCCCCCCCCCCNC(=O)[O][Pt]([NH2])([NH2])([Cl])([Cl])[O]C(=O)CN(C)C [Compound 19] | 78.5
20 | N[C@@H]1CCCC[C@H]1N.O=C(O)CCC(=O)[O][Pt]1([O]C(=O)CCCCCN2C(=O)C=CC2=O)[O]C(=O)C(=O)[O]1 [Compound 55] | 81.9
21 | CCCCCCCCCCCCCCCCCCNC(=O)[O][Pt]([NH2])([NH2])([Cl])([Cl])[O]C(=O)CCC(=O)O [Compound 13] | 82.7
22 | N[C@@H]1CCCC[C@H]1N.O=C(O)CCC(=O)[O][Pt]1([O]C(=O)CCCc2ccc(I)cc2)[O]C(=O)C(=O)[O]1 [Compound 54] | 75.3
23 | CC(=O)[O][Pt]([NH2])([NH2])([Cl])([Cl])[O]C(=O)CCCc1ccc(I)cc1 [Compound 2] | 85.7
24 | N[C@@H]1CCCC[C@H]1N.O=C(O)CCC(=O)[O][Pt]1([O]C(=O)CCC(=O)O)[O]C(=O)C(=O)[O]1 [Compound 53] | 76.7
25 | CCCCCCCCCCCCCCCCCC(=O)[O][Pt]1([O]C(=O)CN(C)C)[O]C(=O)C(=O)[O]1.N[C@@H]1CCCC[C@H]1N [Compound 66] | 77.5
26 | CN(C)CC(=O)[O][Pt]1([O]C(=O)CCCc2ccc(I)cc2)[O]C(=O)C(=O)[O]1.N[C@@H]1CCCC[C@H]1N [Compound 61] | 73.7
27 | CCCCCCCCCCCCCCCCNC(=O)[O][Pt]1([O]C(=O)CN(C)C)[O]C(=O)C(=O)[O]1.N[C@@H]1CCCC[C@H]1N [Compound 63] | 75.7
28 | CN(C)CC(=O)[O][Pt]([NH2])([NH2])([Cl])([Cl])[O]C(=O)CCCc1ccc(I)cc1 [Compound 17] | 79.6
29 | CCCCCCCCCCCCCCCCNC(=O)[O][Pt]1([NH2])([NH2])([O]C(C)=O)[O]C(=O)C2(CCC2)C(=O)[O]1 [Compound 26] | 69.4
30 | CCCCCCCCCCCCCCCCCCNC(=O)[O][Pt]1([O]C(=O)CN(C)C)[O]C(=O)C(=O)[O]1.N[C@@H]1CCCC[C@H]1N [Compound 64] | 82.2

Row | SMILES | Release efficiency [%]
31 | N.N.O=C(O)CCC(=O)[O][Pt]1([O]C(=O)CCCc2ccc(I)cc2)[O]C(=O)C2(CCC2)C(=O)[O]1 [Compound 32] | 64.6
32 | CCCCCCCCCCCCCCCCCCNC(=O)[O][Pt]1([O]C(=O)CCC(=O)O)[O]C(=O)C(=O)[O]1.N[C@@H]1CCCC[C@H]1N [Compound 57] | 76.3
33 | N.N.O=C(O)CCC(=O)[O][Pt]1([O]C(=O)CCC(=O)O)[O]C(=O)C2(CCC2)C(=O)[O]1 [Compound 31] | 65.9
34 | CC(=O)[O][Pt]([NH2])([NH2])([Cl])([Cl])[O]C(=O)CCC(=O)O [Compound 8] | 75.5
35 | CCCCCCCCCCCCCCCCNC(=O)[O][Pt]([NH2])([NH2])([Cl])([Cl])[O]C(=O)CCC(=O)O [Compound 12] | 77.4
36 | CN(C)CC(=O)[O][Pt]([NH2])([NH2])([Cl])([Cl])[O]C(=O)CCCCCN1C(=O)C=CC1=O [Compound 18] | 73.5
37 | [NH2][Pt]([NH2])([Cl])([Cl])([O]C(=O)CCC(=O)O)[O]C(=O)CCC(=O)O [Compound 9] | 75.6
38 | CCCCCCCCCCCCCCCC(=O)[O][Pt]1([O]C(=O)CCC(=O)O)[O]C(=O)C(=O)[O]1.N[C@@H]1CCCC[C@H]1N [Compound 58] | 81.3
39 | CCCCCCCCCCCCCCCCCC(=O)[O][Pt]1([O]C(=O)CCC(=O)O)[O]C(=O)C(=O)[O]1.N[C@@H]1CCCC[C@H]1N [Compound 59] | 82.0
40 | CN(C)CC(=O)[O][Pt]1([O]C(=O)CCCCCN2C(=O)C=CC2=O)[O]C(=O)C(=O)[O]1.N[C@@H]1CCCC[C@H]1N [Compound 62] | 74.5
41 | CCCCCCCCCCCCCCCCCCNC(=O)[O][Pt]1([O]C(=O)CCC(=O)O)[O]C(=O)C2(CCC2)C(=O)[O]1.N.N [Compound 35] | 73.5
42 | CN(C)CC(=O)[O][Pt]1([O]C(=O)CCCCCN2C(=O)C=CC2=O)[O]C(=O)C2(CCC2)C(=O)[O]1.N.N [Compound 40] | 68.9
43 | CN(C)CC(=O)[O][Pt]1([O]C(=O)CCCc2ccc(I)cc2)[O]C(=O)C2(CCC2)C(=O)[O]1.N.N [Compound 39] | 71.0
44 | CCCCCCCCCCCCCCCC(=O)[O][Pt]1([O]C(=O)CN(C)C)[O]C(=O)C(=O)[O]1.N[C@@H]1CCCC[C@H]1N [Compound 65] | 74.6
45 | CC(=O)[O][Pt]1([O]C(=O)CN(C)C)[O]C(=O)C(=O)[O]1.N[C@@H]1CCCC[C@H]1N [Compound 60] | 81.3
46 | CCCCCCCCCCCCCCCCNC(=O)[O][Pt]([NH2])([NH2])([Cl])([Cl])[O]C(C)=O [Compound 4] | 79.5
47 | CCCCCCCCCCCCCCCCCCNC(=O)[O][Pt]([NH2])([NH2])([Cl])([Cl])[O]C(C)=O [Compound 5] | 73.9
48 | CC(=O)[O][Pt]([NH2])([NH2])([Cl])([Cl])[O]C(=O)CN(C)C [Compound 16] | 71.9
49 | CCCCCCCCCCCCCCCCCCNC(=O)[O][Pt]1([O]C(=O)CN(C)C)[O]C(=O)C2(CCC2)C(=O)[O]1.N.N [Compound 42] | 66.3
